Active and inactive are the calls of the source. The calls are words filed in the database; no cut-off is given here.
Assays:
[1] = Drug concentration in male Sprague-Dawley rat lung at 45 mg/kg, po measured after 8 hrs by LC-MS/MS analysis; assay type: ADME, organism-based; settings: read-out: Ct
[2] = system: Hs 683; assay: Inhibition of sphere formation in human Hs 683 cells at 2 uM measured after 10 days in well containing 10000 cells by microscopic analysis; assay type: functional, cell-based; settings: time 10.0 day
[3] = system: LN-229; assay: Inhibition of sphere formation in human LN-229 cells at 1 uM measured after 10 days in well containing 1 cells by microscopic analysis; assay type: functional, cell-based; settings: time 10.0 day
[4] = target: BUB3-interacting and GLEBS motif-containing protein ZNF207 (Homo sapiens, UniProt O43670); assay: Binding affinity to ZNF207 in human U-251MG cells assessed as thermal stabilization by measuring increase in melting temperature at 30 uM incubated for 3 hrs by CETSA; assay type: cell-based
Chain of BUB3-interacting and GLEBS motif-containing protein ZNF207 (O43670 whole entry): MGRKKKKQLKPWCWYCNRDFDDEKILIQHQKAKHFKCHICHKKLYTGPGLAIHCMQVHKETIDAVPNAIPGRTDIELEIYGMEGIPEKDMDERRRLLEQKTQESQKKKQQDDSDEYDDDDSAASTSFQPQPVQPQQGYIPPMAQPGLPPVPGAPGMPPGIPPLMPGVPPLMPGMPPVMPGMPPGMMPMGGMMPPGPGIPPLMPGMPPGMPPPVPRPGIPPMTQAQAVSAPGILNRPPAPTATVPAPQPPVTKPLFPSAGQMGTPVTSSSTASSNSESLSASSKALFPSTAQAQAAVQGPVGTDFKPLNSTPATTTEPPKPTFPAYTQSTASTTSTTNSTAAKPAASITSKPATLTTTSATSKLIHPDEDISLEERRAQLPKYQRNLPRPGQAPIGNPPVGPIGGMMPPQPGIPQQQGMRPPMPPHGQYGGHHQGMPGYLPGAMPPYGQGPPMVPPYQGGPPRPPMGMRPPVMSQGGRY

[5] = system: NCI-H460; assay: Antiproliferative activity against human NCI-H460 cells assessed as inhibition of cell growth incubated for 72 hrs by CCK-8 assay; assay type: functional, cell-based; settings: NCI-H460, 72 h
[6] = system: MDR1; assay: Apparent permeability across basolateral to apical side in MDCKII-MDR1 cells at 1 uM incubated for 2 hrs by LC-MS/MS analysis; assay type: ADME, cell-based, Canis lupus familiaris; settings: dog, MDCK-MDR1
[7] = system: Hs 683; assay: Inhibition of sphere formation in human Hs 683 cells at 8 uM measured after 10 days in well containing 100 cells by microscopic analysis; assay type: functional, cell-based; settings: time 10.0 day
[8] = system: MDR1; assay: Apparent permeability across apical to basolateral side in MDCKII-MDR1 cells assessed as drug recovery at 1 uM incubated for 2 hrs by LC-MS/MS analysis; assay type: ADME, cell-based, Canis lupus familiaris; settings: dog, MDCK-MDR1, read-out: Drug recovery
[9] = system: A549; assay: Antiproliferative activity against human A549 cells assessed as inhibition of cell growth incubated for 72 hrs by CCK-8 assay; assay type: functional, cell-based; settings: A549, 72 h
[10] = system: LN-229; assay: Inhibition of sphere formation in human LN-229 cells incubated for 168 hrs by microscopic analysis; assay type: functional, cell-based; settings: LN-229, 168 h
[11] = Toxicity in male C57BL/6 mouse assessed as change in cellular structure of stomach at 45 mg/kg, po administered once a day for 2 weeks by H and E staining based analysis; assay type: organism-based; settings: in vivo, 336 h
[12] = Drug concentration in male Sprague-Dawley rat liver at 45 mg/kg, po measured after 8 hrs by LC-MS/MS analysis; assay type: ADME, organism-based; settings: read-out: Ct
[13] = system: LN-229-Luc; assay: Antitumor activity against human Ln-229-Luc cells xenografted in po dosed BALB/c nude mouse administered once a day and measured after 3 to 31 days; assay type: functional, organism-based; settings: dose 15-45 mg/kg, time 3-31 day
[14] = Toxicity in male C57BL/6 mouse assessed as change in cellular structure of brain at 45 mg/kg, po administered once a day for 2 weeks by H and E staining based analysis; assay type: organism-based; settings: in vivo, 336 h
[15] = system: U-251; assay: Inhibition of sphere formation in human U-251MG cells assessed as fold reduction in sphere initiating frequency at 2 uM incubated for 10 days by microscopic analysis relative to control; assay type: functional; settings: time 10 day
[16] = system: H4; assay: Inhibition of sphere formation in human H4 cells assessed as fold reduction in sphere initiating frequency at 1 uM incubated for 10 days by microscopic analysis relative to control; assay type: functional; settings: time 10 day
[17] = system: H4; assay: Inhibition of sphere formation in human H4 cells at 2 uM measured after 10 days in well containing 10 cells by microscopic analysis; assay type: functional, cell-based; settings: time 10.0 day
[18] = Toxicity in female C57BL/6 mouse assessed as change in cellular structure of liver at 45 mg/kg, po administered once a day for 2 weeks by H and E staining based analysis; assay type: organism-based; settings: in vivo, 336 h
[19] = Toxicity in female C57BL/6 mouse assessed as change in cellular structure of kidney at 45 mg/kg, po administered once a day for 2 weeks by H and E staining based analysis; assay type: organism-based; settings: in vivo, 336 h
[20] = system: LN-229; assay: Antitumor activity against human LN-229 cells xenografted in BALB/c nude mouse assessed as reduction in proportion of p-H3 positive cells at 15 to 45 mg/kg, po administered once a day and measured after 49 days by immunohistochemistry analysis; assay type: functional, organism-based; settings: dose 15-45 mg/kg, time 49.0 day
[21] = Drug concentration in female Sprague-Dawley rat lung at 45 mg/kg, po measured after 8 hrs by LC-MS/MS analysis; assay type: ADME, organism-based; settings: read-out: Ct
[22] = system: Hs 683; assay: Inhibition of sphere formation in human Hs 683 cells at 4 uM measured after 10 days in well containing 10000 cells by microscopic analysis; assay type: functional, cell-based; settings: time 10.0 day
[23] = system: Hs 683; assay: Induction of apoptosis in human Hs 683 cells at 1.25 uM incubated for 24 hrs by Annexin V-FITC/PI staining based flow cytometry analysis; assay type: functional, cell-based
[24] = system: LN-229; assay: Antitumor activity against human LN-229 cells xenografted in BALB/c nude mouse assessed as reduction in proportion of Ki-67 positive cells at 15 to 45 mg/kg, po administered once a day and measured after 49 days by immunohistochemistry analysis; assay type: functional, organism-based; settings: dose 15-45 mg/kg, time 49.0 day
[25] = system: H4; assay: Inhibition of sphere formation in human H4 cells at 8 uM measured after 10 days in well containing 10000 cells by microscopic analysis; assay type: functional, cell-based; settings: time 10.0 day
[26] = system: H4; assay: Inhibition of sphere formation in human H4 cells at 4 uM measured after 10 days in well containing 100 cells by microscopic analysis; assay type: functional, cell-based; settings: time 10.0 day
[27] = Toxicity in male C57BL/6 mouse assessed as change in cellular structure of heart at 45 mg/kg, po administered once a day for 2 weeks by H and E staining based analysis; assay type: organism-based; settings: in vivo, 336 h
[28] = system: H4; assay: Inhibition of sphere formation in human H4 cells at 8 uM measured after 10 days in well containing 10 cells by microscopic analysis; assay type: functional, cell-based; settings: time 10.0 day
[29] = Drug concentration in male Sprague-Dawley rat spleen at 45 mg/kg, po measured after 8 hrs by LC-MS/MS analysis; assay type: ADME, organism-based; settings: read-out: Ct
[30] = system: MDR1; assay: Efflux ratio of apparent permeability across basolateral to apical side over apical to basolateral side in MDCKII-MDR1 cells at 1 uM incubated for 2 hrs by LC-MS/MS analysis; assay type: ADME, cell-based, Canis lupus familiaris; settings: dog, MDCK-MDR1
[31] = Drug concentration in female Sprague-Dawley rat kidney at 45 mg/kg, po measured after 8 hrs by LC-MS/MS analysis; assay type: ADME, organism-based; settings: read-out: Ct
[32] = system: U-251; assay: Antiproliferative activity against human U-251MG cells assessed as inhibition of cell growth measured after 72 hrs by CCK-8 assay; assay type: functional, cell-based; settings: U-251, 72 h
[33] = Toxicity in male C57BL/6 mouse assessed as change in cellular structure of intestine at 45 mg/kg, po administered once a day for 2 weeks by H and E staining based analysis; assay type: organism-based; settings: in vivo, 336 h
[34] = Drug concentration in male Sprague-Dawley rat kidney at 45 mg/kg, po measured after 8 hrs by LC-MS/MS analysis; assay type: ADME, organism-based; settings: read-out: Ct
[35] = system: LN-229; assay: Inhibition of sphere formation in human LN-229 cells at 8 uM measured after 10 days in well containing 1 cells by microscopic analysis; assay type: functional, cell-based; settings: time 10.0 day
[36] = system: U-251; assay: Inhibition of sphere formation in human U-251MG cells at 2 uM measured after 10 days in well containing 1 cells by microscopic analysis; assay type: functional, cell-based; settings: time 10.0 day
[37] = Drug concentration in female Sprague-Dawley rat heart at 45 mg/kg, po measured after 8 hrs by LC-MS/MS analysis; assay type: ADME, organism-based; settings: read-out: Ct
[38] = system: Hs 683; assay: Inhibition of sphere formation in human Hs 683 cells at 8 uM measured after 10 days in well containing 1 cells by microscopic analysis; assay type: functional, cell-based; settings: time 10.0 day

- concentration at 8 h [1]: 2050 ng/g
- ΔTm [4]: 5.2 °C
- IC50 [5]: 15.6 µM
- Papp B→A at 2 h, 1 µM [6]: 4.09 ×10⁻⁶ cm/s
- recovery at 2 h, 1 µM [8]: 96%
- IC50 [9]: 9.68 µM
- IC50 [10]: 1.23 µM
- concentration at 8 h [12]: 779 ng/g
- concentration at 8 h [21]: 6360 ng/g
- concentration at 8 h [29]: 655 ng/g
- efflux ratio at 2 h, 1 µM [30]: 3.25
- concentration at 8 h [31]: 816 ng/g
- IC50 [32]: 13.1 µM
- concentration at 8 h [34]: 85.1 ng/g
- concentration at 8 h [37]: 783 ng/g
SMILES: N#CC1(C(=O)NCCC2CCN(Cc3ccccc3)CC2)CC2(Br)c3ccccc3C1c1ccccc12 (racemic)
- inhibition [2]: inactive
- inhibition [3]: Active
- inhibition [7]: Active
- Activity [11]: Non-Toxic
- Activity [13]: Dose-Dependent Effect
- Activity [14]: Non-Toxic
- fold change (FC) [15]: 35.63
- fold change (FC) [16]: 14.09
- inhibition [17]: Active
- Activity [18]: Non-Toxic
- Activity [19]: Non-Toxic
- Activity [20]: Active
- inhibition [22]: inactive
- Activity [23]: Active
- Activity [24]: Active
- inhibition [25]: inactive
- inhibition [26]: Active
- Activity [27]: Non-Toxic
- inhibition [28]: Active
- Activity [33]: Non-Toxic
- inhibition [35]: Active
- inhibition [36]: Active
- inhibition [38]: Active
